# “Also recorded” adds a separate entry of the source.
# How the values were obtained:
# [1] = test system: Purified B cells from C57BL6 mice; type: cell-based
# [2] = test system: murine DCs; conditions: cited from earlier work
Substance,"proliferation of B cells ([3H]-thymidine incorporation, CPM) [1]","pro-inflammatory cytokines IL-12p40, IL-6 and TNFα produced [2]"
Poly I:C,does not,–
tripalmitoyl-S-glyceryl-cysteine [Pam3Cys],can induce potent proliferation of B cells; also recorded: capable of inducing potent proliferation of B cells,high levels

# Source: patent US11077184B2 (priority 2011, dated 2021)
